Values of other authors in patent US5314690A, “Method and composition for treating IgE-mediated allergies” (Northwestern University, priority 1992, dated 1994).
Read-outs that look alike come from different tables or passages of the source. Where no end group is shown, it is not given here.

Legend:
immune response [1] = settings: reported by Siemion et al.; for Effect on the immune response at low doses: low doses (one dose)
immune response [2] = settings: reported by Siemion et al.
[3] = listed as C-terminal pentapeptide
[4] = listed as N-terminal tetrapeptide

## Phe-Phe-Gly-Leu-Met-NH2 (FFGLM-NH2) [SP^7-11, No. 2]
Immune response [1]
  Effect on the immune response in vivo: distinct immuno-suppression in vivo
Immune response [1]; [3]
  Effect on the immune response in vivo: immunosuppressant
Immune response [2]
  Effect on the immune response in vitro: suppressed the immune response in vitro
Immune response [2]; [3]
  Effect on the immune response in vitro: immunosuppressant

## Gly-Pro-Arg-Pro (GPRP) [SP^1-4, No. 5]
Immune response [1]
  Effect on the immune response at higher doses: slightly stimulated
  Effect on the immune response at low doses: only moderately suppressed the immune response
Immune response [1]; [4]
  Effect on the immune response at higher doses: stimulatory at a higher dose
  Effect on the immune response at low doses: suppressive at one dose
